Results published in patent publication US11667667B2, “Steroid derivative FXR agonist” (Chia Tai Tianqing Pharmaceutical Group Co., Ltd., priority 2016, dated 2023).

Columns and labels:
[1] = target: T1, Glutathione-S-transferase-labeled FXR human protein (Homo sapiens, UniProt Q96RI1); assay: FXR biochemical experiment (AlphaScreen, coactivator recruitment); conditions: for EC50: AlphaScreen, GST-FXR human protein + biotin-labeled steroid receptor coactivator, read-out: FXR enzyme activity EC50; for Emax: ratio of highest signal of the compound to that of the reference compound, read-out: FXR enzyme activity Efficacy
T1 construct: purchased Invitrogen
T1 sequence (Q96RI1 1-486): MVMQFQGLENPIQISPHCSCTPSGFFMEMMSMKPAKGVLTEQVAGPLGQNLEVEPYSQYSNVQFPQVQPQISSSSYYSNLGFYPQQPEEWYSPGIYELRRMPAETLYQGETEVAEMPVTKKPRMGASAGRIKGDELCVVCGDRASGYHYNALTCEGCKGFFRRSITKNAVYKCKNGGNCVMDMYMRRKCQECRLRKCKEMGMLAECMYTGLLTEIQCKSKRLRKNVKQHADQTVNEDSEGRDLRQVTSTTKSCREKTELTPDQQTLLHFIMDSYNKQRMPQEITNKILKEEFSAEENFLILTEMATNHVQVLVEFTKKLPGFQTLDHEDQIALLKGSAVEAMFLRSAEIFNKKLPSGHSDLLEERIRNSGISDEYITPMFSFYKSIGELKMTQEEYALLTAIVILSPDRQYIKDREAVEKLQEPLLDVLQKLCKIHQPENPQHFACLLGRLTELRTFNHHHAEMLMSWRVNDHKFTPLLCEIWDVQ
Protocol: FXR Biochemical Experiment Experimental Purpose: The activation effect of the compound on FXR binding reaction was detected by AlphaScreen. […] Protein: Glutathione-S-transferase-labeled FXR human protein (Invitrogen) 2. Co-activator: Biotin-labeled steroid receptor coactivator (Anaspec) 3. […] Compound Dilution: The compound to be tested was prepared as a 40 μM DMSO solution, and then diluted 3-fold to 10 concentration points. The reference compound was prepared as a 400 μM DMSO solution, and then diluted 1.5-fold to 10 concentration points. The diluted DMSO solution was added to the wells of a 384-well plate in a volume of 150 nL per well. 2. […] 4. […] The operation during the experimental process was protected from light. The incubation was performed for 1 hour at room temperature. 5. […] The operation during the experimental process was protected from light. The incubation was performed for 1 hour at room temperature. 6. EC50 test: Envision was used with excitation at 680 nm to read the […] signals at 520-620 nm. 7. Analytical data: The data were analyzed via using Prism 5.0, and the EC50 values of the activation effects of the compounds were calculated.

[2] = Liver-blood ratio experiment of mice via cassette dosing; type: in vivo, mice (C57BL/6J); conditions: oral cassette 2 mg/kg
Protocol: Liver-Blood Ratio Experiment of Mice Via Cassette Dosing
6 male mice (C57BL/6J) were grouped as an oral administration group. 5 kinds of the developed drugs were contained in the formulation, and intragastrical administration was performed at a dose of 2 mg/kg/compound (the vehicle was 0.5% HPMC aqueous solution). The five compounds were firstly and respectively dissolved in the vehicle, and sonicated or whirled to form a 1 mg/mL solution (clear solution or suspension), respectively; and then the solutions of the five compound were mixed in equal volumes (1:1:1:1:1, v:v:v:v:v) into a glass bottle. After intragastrical oral administration, plasma and liver tissue samples were collected from 3 animals at 0.5 h after administration; corresponding samples were collected from the other 3 animals at 3 h after administration. After collection, the liver tissue was homogenized by using ice-cold homogenization buffer (methanol:15 mM PBS buffer (pH 7.4)=1:2, v:v) based on the ratio of liver weight:homogenization buffer volume=1:3. Plasma and liver tissue samples were analyzed by using a five-in-one LC-MS/MS analysis method developed in advance. The concentrations of plasma and liver tissue homogenate were obtained, and the concentration ratios of liver tissue to plasma were calculated by using Excel.

SMILES	EC50 [1] [nM]	Emax [1] [%]	also measured
CC[C@H]1[C@@H](O)[C@@H]2[C@H](CC[C@]3(C)[C@@H]([C@H](C)CCN4CCC[C@@H]4C(=O)O)CC[C@@H]23)[C@@]2(C)CC[C@@H](O)C[C@@H]12 [Example 2]	1460	114	
CC[C@H]1[C@@H](O)[C@@H]2[C@H](CC[C@]3(C)[C@@H]([C@H](C)CCN4CCC[C@H]4C(=O)O)CC[C@@H]23)[C@@]2(C)CC[C@@H](O)C[C@@H]12 [Example 3]	2620	106	
CC[C@H]1[C@@H](O)[C@@H]2[C@H](CC[C@]3(C)[C@@H]([C@H](C)CCOc4ccccc4C(=O)O)CC[C@@H]23)[C@@]2(C)CC[C@@H](O)C[C@@H]12 [Example 8]		264	
CC[C@H]1[C@@H](O)[C@@H]2[C@H](CC[C@]3(C)[C@@H]([C@H](C)CCOc4cnc(C(=O)O)nc4)CC[C@@H]23)[C@@]2(C)CC[C@@H](O)C[C@@H]12 [Example 12]	70	240	
CC[C@H]1[C@@H](O)[C@@H]2[C@H](CC[C@]3(C)[C@@H]([C@H](C)CCOc4cnccc4C(=O)O)CC[C@@H]23)[C@@]2(C)CC[C@@H](O)C[C@@H]12 [Example 13]	390	270	
CC[C@H]1[C@@H](OC)[C@@H]2[C@H](CC[C@]3(C)[C@@H]([C@H](C)CCOCC45CC(C(=O)O)(C4)C5)CC[C@@H]23)[C@@]2(C)CC[C@@H](O)C[C@@H]12 [Example 14]	730	195	
CC[C@H]1[C@@H](O)[C@@H]2[C@H](CC[C@]3(C)[C@@H]([C@H](C)CCOc4cccnc4C(=O)O)CC[C@@H]23)[C@@]2(C)CC[C@@H](O)C[C@@H]12 [Example 16]	310	247	
CC[C@H]1[C@@H](O)[C@@H]2[C@H](CC[C@]3(C)[C@@H]([C@H](C)CCCOc4ccc(C(=O)O)cn4)CC[C@@H]23)[C@@]2(C)CC[C@@H](O)C[C@@H]12 [Example 18]	70	187	
CC[C@H]1[C@@H](O)[C@@H]2[C@H](CC[C@]3(C)[C@@H]([C@H](C)/C=C/c4cccc(C(=O)O)c4)CC[C@@H]23)[C@@]2(C)CC[C@@H](O)C[C@@H]12 [Example 20]	60	287	
CC[C@H]1[C@@H](O)[C@@H]2[C@H](CC[C@]3(C)[C@@H]([C@H](C)CCOc4ncc(C(=O)O)cc4F)CC[C@@H]23)[C@@]2(C)CC[C@@H](O)C[C@@H]12 [Example 24]		138	
CC[C@H]1[C@@H](O)[C@@H]2[C@H](CC[C@]3(C)[C@@H]([C@H](C)CCOc4cccc(C(=O)O)n4)CC[C@@H]23)[C@@]2(C)CC[C@@H](O)C[C@@H]12 [Example 25]	11	233	
CC[C@H]1[C@@H](O)[C@@H]2[C@H](CC[C@]3(C)[C@@H]([C@H](C)CCOc4ccc(C(=O)NS(C)(=O)=O)cn4)CC[C@@H]23)[C@@]2(C)CC[C@@H](O)C[C@@H]12 [Example 27]	6	212	
CC[C@H]1[C@@H](O)[C@@H]2[C@H](CC[C@]3(C)[C@@H]([C@H](C)CCOc4ccc(C(=O)NS(=O)(=O)C5CC5)cn4)CC[C@@H]23)[C@@]2(C)CC[C@@H](O)C[C@@H]12 [Example 28]	7	219	
CC[C@H]1[C@@H](O)[C@@H]2[C@H](CC[C@]3(C)[C@@H]([C@H](C)CCOc4ccc(C(=O)NS(=O)(=O)C(C)(C)C)cn4)CC[C@@H]23)[C@@]2(C)CC[C@@H](O)C[C@@H]12 [Example 29]	12	190	
CC[C@H]1[C@@H](O)[C@@H]2[C@H](CC[C@]3(C)[C@@H]([C@H](C)CCOc4ccc(C(=O)NS(=O)(=O)C(C)C)cn4)CC[C@@H]23)[C@@]2(C)CC[C@@H](O)C[C@@H]12 [Example 30]	56	150	
CC[C@H]1[C@@H](O)[C@@H]2[C@H](CC[C@]3(C)[C@@H]([C@H](C)CCOc4ccc(C(=O)NS(=O)(=O)c5ccccc5)cn4)CC[C@@H]23)[C@@]2(C)CC[C@@H](O)C[C@@H]12 [Example 31]	27	204	
CC[C@H]1[C@@H](O)[C@@H]2[C@H](CC[C@]3(C)[C@@H]([C@H](C)CCOc4ccc(C(=O)Nc5ccccc5)cn4)CC[C@@H]23)[C@@]2(C)CC[C@@H](O)C[C@@H]12 [Example 32]	650	140	
CC[C@H]1[C@@H](O)[C@@H]2[C@H](CC[C@]3(C)[C@@H]([C@H](C)CCOc4ccc(C(=O)NC)cn4)CC[C@@H]23)[C@@]2(C)CC[C@@H](O)C[C@@H]12 [Example 33]	141	194	
CC[C@H]1[C@@H](O)[C@@H]2[C@H](CC[C@]3(C)[C@@H]([C@H](C)CCOc4ccc(C(=O)NC5CC5)cn4)CC[C@@H]23)[C@@]2(C)CC[C@@H](O)C[C@@H]12 [Example 34]	93	191	
CC[C@H]1[C@@H](O)[C@@H]2[C@H](CC[C@]3(C)[C@@H]([C@H](C)CCOc4ccc(C(=O)NCCS(=O)(=O)O)cn4)CC[C@@H]23)[C@@]2(C)CC[C@@H](O)C[C@@H]12 [Example 38]	20	210	
CC[C@H]1[C@@H](O)[C@@H]2[C@H](CC[C@]3(C)[C@@H]([C@H](C)CCOc4ccc(C(=O)NCC(=O)O)cn4)CC[C@@H]23)[C@@]2(C)CC[C@@H](O)C[C@@H]12 [Example 39]	20	205	
CC[C@H]1[C@@H](O)[C@@H]2[C@H](CC[C@]3(C)[C@@H]([C@H](C)CCCOc4ncc(C(=O)O)cc4Cl)CC[C@@H]23)[C@@]2(C)CC[C@@H](O)C[C@@H]12 [Example 40]	45	197	
CC[C@H]1[C@@H](O)[C@@H]2[C@H](CC[C@]3(C)[C@@H]([C@H](C)CCOc4ccnc(C(=O)O)c4)CC[C@@H]23)[C@@]2(C)CC[C@@H](O)C[C@@H]12 [Example 41]	80	127	
CC[C@H]1[C@@H](O)[C@@H]2[C@H](CC[C@]3(C)[C@@H]([C@H](C)CC(=O)Nc4cncc(C(=O)O)c4)CC[C@@H]23)[C@@]2(C)CC[C@@H](O)C[C@@H]12 [Example 42]	1430	121	
CC[C@H]1[C@@H](O)[C@@H]2[C@H](CC[C@]3(C)[C@@H]([C@H](C)CCNc4cncc(C(=O)O)c4)CC[C@@H]23)[C@@]2(C)CC[C@@H](O)C[C@@H]12 [Example 43]	370	193	
CC[C@H]1[C@@H](O)[C@@H]2[C@H](CC[C@]3(C)[C@@H]([C@H](C)CCOc4ccc(C(=O)OC)cn4)CC[C@@H]23)[C@@]2(C)CC[C@@H](O)C[C@@H]12 [Example 44]	330	140	
CC[C@H]1[C@@H](O)[C@@H]2[C@H](CC[C@]3(C)[C@@H]([C@H](C)CCC(=O)O)CC[C@@H]23)[C@@]2(C)CC[C@@H](O)C[C@@H]12 [INT-747, reference compound]			Concentration in liver ([2]; 0.5 h): 711 nM; Concentration in plasma ([2]; 0.5 h): 151 nM; Concentration ratio of liver to plasma ([2]; 0.5 h): 5; Concentration in liver ([2]; 3 h): 625 nM; Concentration in plasma ([2]; 3 h): 63 nM; Concentration ratio of liver to plasma ([2]; 3 h): 10
